Assays:
Conditions in all cases: stereoisomer not certain
[1] = RP, Waters ACQUITY UPLC BEH C18, 100 × 2.1 mm, 1.7 µm, 30 °C, 0.35 mL/min, estimated dead time 0.63 min; A: water + 0.01% formic acid + 5 mM ammonium formate, pH 3.71; B: acetonitrile + 0.01% formic acid, pH 3.71; gradient (min/%B) 0/10 3/10 22/100 30/100 30.1/10 40/10
[2] = RP, Waters ACQUITY UPLC BEH C18, 100 × 2.1 mm, 1.7 µm, 35 °C, 0.35 mL/min, estimated dead time 0.63 min; A: water + 0.01% formic acid + 5 mM ammonium formate, pH 3.71; B: acetonitrile + 0.01% formic acid, pH 3.71; gradient (min/%B) 0/5 0.5/5 16/95 16.1/99 19/99 19.1/5 21/5
[3] = RP, Thermo Scientific Acclaim RSLC 120 C18, 100 × 2.1 mm, 2.2 µm, 30 °C, 0.2 mL/min, estimated dead time 1.1 min; A: 90% water + 10% methanol + 0.01% formic acid + 5 mM ammonium formate, pH 3.61; B: methanol + 0.01% formic acid + 5 mM ammonium formate, pH 3.61; gradient (min/%B) 0/1 1/1 2/39 13/99.9 15/99.9 15.1/1 20.1/1
[4] = RP, Thermo Scientific Acclaim RSLC 120 C18, 100 × 2.1 mm, 2.2 µm, 30 °C, 0.2 mL/min, estimated dead time 1.1 min; A: water + 0.1% formic acid, pH 2.6; B: methanol + 0.1% formic acid, pH 2.6; gradient (min/%B) 0/10 4/50 17/95 25/95 25.1/10 30/10

| SMILES | LC retention time [1] [min] | LC retention time [2] [min] | LC retention time [3] [min] | LC retention time [4] [min] |
| --- | --- | --- | --- | --- |
| N#CSCSc1nc2ccccc2s1 [TCMTB] | 13.4 | 10.1 | 9.25 | 11.4 |
| CCN(C)C(=O)Oc1cccc(C(C)N(C)C)c1 (stereo not drawn) [Rivastigmine] | 6.53 | 4.78 | 4.74 | 4.86 |
| CC(N)C12CC3CC(CC(C3)C1)C2 (stereo not drawn) [Rimantadin] | 7.89 | 5.86 | 6.71 | 6.34 |
| CCN1CCN(C(=O)NC(C(=O)NC2C(=O)N3C(C(=O)O)=C(CSc4nnnn4C)CSC23)c2ccc(O)cc2)C(=O)C1=O (stereo not drawn) [Cefoperazone] | 6.08 | 4.19 | 4.36 | 5.37 |
| CCCCCc1cc(O)c2c(c1)OC(C)(C)C1CCC(C)=CC21 (stereo not drawn) [THC] | 19.6 | 15.1 | 14 | 18.7 |
| Cn1c(=O)c2c(ncn2C)n(C)c1=O [Caffeine] | 2.43 | 3.08 | 4.23 | 4.69 |
| CC(N)Cc1ccc2c(c1)OCO2 (stereo not drawn) [MDA] | 3.36 | 3.46 | 4.19 | 3.96 |
| Cn1c(=O)c2[nH]cnc2n(C)c1=O [Theophylline] | 1.66 | 2.31 | 3.93 | 4.14 |
| C=CC(N)CCC(=O)O (stereo not drawn) [Vigabatrin] | 0.81 | 0.83 | 1.38 | 1.34 |
| CCC1OC(=O)CC(O)C(C)C(OC2OC(C)C(OC3CC(C)(O)C(O)C(C)O3)C(N(C)C)C2O)C(CC=O)CC(C)C(=O)C=CC(C)=CC1COC1OC(C)C(O)C(OC)C1OC (stereo not drawn) [Tylosin] | 10.1 | 7.42 | 7.88 | 7.75 |
| COc1ccc(C(=O)c2ccccc2)c(O)c1 [Benzophenon 3 (=2-Hydroxy-4-methoxybenzophenon)] | 14.5 | 11 | 10.8 | 13.8 |
| COc1cc(Cc2cnc(N)nc2N)cc(OC)c1OC [Trimethoprim] | 4.48 | 3.78 | 4.06 | 3.86 |
| CC(N)Cc1ccccc1 (stereo not drawn) [Amphetamine] | 2.99 | 3.28 | 4.16 | 3.86 |
| NC(=O)c1cccnc1 [Nicotinamide] | 1.06 | 1.2 | 2.73 | 1.69 |
| COc1cc2c(c(OC)c1OC)-c1ccc(OC)c(=O)cc1C(NC(C)=O)CC2 (stereo not drawn) [Colchicine] | 8.29 | 5.99 | 6.43 | 7.17 |
| COC1C=COC2(C)Oc3c(C)c(O)c4c(O)c(c5c(nc6cc(C)ccn65)c4c3C2=O)NC(=O)C(C)=CC=CC(C)C(O)C(C)C(O)C(C)C(OC(C)=O)C1C (stereo not drawn) [Rifaximin] | 13 | 9.87 | 10.1 | 12.5 |
| N#CC1CCCN1C(=O)CNC12CC3CC(CC(O)(C3)C1)C2 (stereo not drawn) [Vildagliptin] | 1.89 | 2.68 | 3.26 | 2.81 |
| CC(C)NCC(O)COc1cccc2[nH]ccc12 (stereo not drawn) [Pindolol] | 4.14 | 3.7 | 3.89 | 3.69 |
| CC12CCC(O)CC1CCC1C2C(=O)CC2(C)C1CCC2(O)C(=O)CO (stereo not drawn) | 9.93 | 7.37 | 9.21 | 11.2 |
| CCCCC(CC)COC(=O)C(C#N)=C(c1ccccc1)c1ccccc1 (stereo not drawn) [Octocrylene] | 19.8 | 15.3 | 13.4 | 18 |
| Cn1cnc2c1c(=O)[nH]c(=O)n2C [Theobromine] | 1.23 | 1.65 | 3.28 | 3.37 |
| CCC(C)OC(=O)N1CCCCC1CCO (stereo not drawn) [Picaridin (Icaridin)] | 10.8 | 8.16 | 8.83 | 10.7 |

From the RepoRT retention time repository (doi:10.1021/acs.analchem.2c02893)
